From paper PMC8848308 (Bioorganic & medicinal chemistry letters, 2020)

Tested on: Huh7 cells stably expressing DENV-3 replicon (strain D3MY05-34640)
Experiment: Luciferase reporter replicon assay, DENV-3
Assay type: cell-based
Details: on moving the 3-F group to the ortho position (compared with the 3-F analogue)

## O=C1CC2(C(=O)Nc3ccc(Cl)cc32)c2cnn(Cc3ccc(Cl)c(F)c3)c2N1 (stereo not shown) [Compound 22, 5-Chloro-1’-(4-chloro-3-fluorobenzyl)-5’,7’-dihydrospiro[indoline-3,4’-pyrazolo[3,4-b]pyridine]-2,6’(1’H)-dione]
  loss of potency against DENV-3: 20 fold
